Reference: PMC8592027, “Structure-Guided Design of D-Galactal Derivatives with High Affinity and Selectivity for the Galectin-8 N-Terminal Domain” (ACS Medicinal Chemistry Letters, 2021)
Entries after “also recorded” stand apart in the source; their conditions may differ. Where two headings read alike, the source gives them in different places.

Experiments:
[1] = target: T1, galectin-8N (galectin-8 N-terminal domain) (Homo sapiens, UniProt O00214); details: cited from earlier work
T1 construct: selective ligand for the galectin-8 N-terminal domain (galectin-8N); made in house
T1 sequence (O00214 19-152 limits assumed): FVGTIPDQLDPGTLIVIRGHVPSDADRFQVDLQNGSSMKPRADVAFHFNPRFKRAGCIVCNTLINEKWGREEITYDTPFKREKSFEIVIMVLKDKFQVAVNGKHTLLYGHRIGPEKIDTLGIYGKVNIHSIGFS

[2] = target: T2, galectin-1 (Homo sapiens, UniProt P09382); test: Competitive fluorescence polarization assay, galectin-1; assay type: binding; details: mean ± SEM of n = 4–8
T2 construct: made in house
Experimental: (§1) 1. Competitive fluorescence polarization experiments:
(§2) Human galectins -1, -3, -4N, -4C, -7, -8N, -9N, and -9C were expressed and purified as previously described 30,41. Fluorescence polarisation experiments were performed using the PHERAstar FS plat e reader (software version 2.10 R3), and the fluorescence anisotropy of fluorescein tagged probes was measured by excitation at 485 nm and emission at 520 nm. The specific conditions for galectins -1, -3, -4N, -4C, -7, -8N, -9N, and -9C were kept as report ed30,41,42. The synthesised compounds were dissolved in pure DMSO at 20 mM concentration and diluted in PBS to 3-6 different concentrations, and each concentration was tested in duplicate. The highest inhibitor concentrations tested were 1.5 mM. The

[3] = target: T3, galectin-3 (Homo sapiens, UniProt P17931); test: Competitive fluorescence polarization assay, galectin-3; assay type: binding; details: mean ± SEM of n = 4–8
T3 construct: made in house
Experimental: as §1, §2

[4] = target: T4, galectin-4N (N-terminal domain) (Homo sapiens, UniProt P56470); test: Competitive fluorescence polarization assay, galectin-4N; assay type: binding; details: mean ± SEM of n = 4–8
T4 construct: galectins (N = N-terminal domain, C = C-terminal domain); made in house
T4 sequence (P56470 19-150 limits assumed): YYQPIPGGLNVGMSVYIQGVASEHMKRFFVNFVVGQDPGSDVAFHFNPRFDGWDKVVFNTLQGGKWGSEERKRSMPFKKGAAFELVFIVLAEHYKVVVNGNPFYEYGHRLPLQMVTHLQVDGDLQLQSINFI
Experimental: as §1, §2

[5] = target: T5, galectin-4C (C-terminal domain) (Homo sapiens, UniProt P56470); test: Competitive fluorescence polarization assay, galectin-4C; assay type: binding; details: mean ± SEM of n = 4–8
T5 construct: galectins (N = N-terminal domain, C = C-terminal domain); made in house
T5 sequence (P56470 194-323 limits assumed): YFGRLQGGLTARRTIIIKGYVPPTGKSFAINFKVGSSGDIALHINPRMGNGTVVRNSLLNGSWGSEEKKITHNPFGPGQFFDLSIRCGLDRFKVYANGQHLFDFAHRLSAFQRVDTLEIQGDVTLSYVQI
Experimental: as §1, §2

[6] = target: T1, galectin-8N (galectin-8 N-terminal domain); test: Competitive fluorescence polarization assay, galectin-8N; assay type: binding; details: for Kd: mean ± SEM of n = 4–8
Experimental: All synthesized D-galactal derivatives had higher binding affinities for galectin-8N than D-galactal 3.
as §1, §2

[7] = target: T6, galectin-8C (C-terminal domain) (Homo sapiens, UniProt O00214); test: Competitive fluorescence polarization assay, galectin-8C; assay type: binding; details: mean ± SEM of n = 4–8
T6 construct: galectins (N = N-terminal domain, C = C-terminal domain)
T6 sequence (O00214 187-317 limits assumed): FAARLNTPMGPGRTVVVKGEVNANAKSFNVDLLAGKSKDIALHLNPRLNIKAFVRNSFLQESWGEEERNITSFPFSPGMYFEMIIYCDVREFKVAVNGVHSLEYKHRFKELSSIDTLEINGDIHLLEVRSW

[8] = target: T7, galectin-9N (N-terminal domain) (Homo sapiens, UniProt O00182); test: Competitive fluorescence polarization assay, galectin-9N; assay type: binding; details: mean ± SEM of n = 4–8
T7 construct: galectins (N = N-terminal domain, C = C-terminal domain); made in house
Experimental: as §1, §2

[9] = target: T8, galectin-9C (C-terminal domain) (Homo sapiens, UniProt O00182); test: Competitive fluorescence polarization assay, galectin-9C; assay type: binding; details: mean ± SEM of n = 4–8
T8 construct: galectins (N = N-terminal domain, C = C-terminal domain); made in house
Experimental: as §1, §2

[10] = system: K562 cancer cell line; test: MTS metabolic activity (cytotoxicity) assay, K562; assay type: cell-based; details: concentrations 1 to 100 μM, 24 hours
Experimental: (§3) We have investigated the cytotoxicity of the compounds 1, 6a, and 6c via a (3-(4,5-dimethylthiazol-2-yl)-5-(3-carboxymethoxyphenyl)-2-(4-sulfophenyl)-2H-tetrazolium) (MTS) assay in K562 and MDA-MB-231 cancer cell lines to establish the direct antitumor activity of compounds, as well as human peripheral blood mononuclear cells (PBMCs), to evaluate their safety.
(§4) Metabolic activity assay:
(§5) The metabolic activities of the cell lines were determined using the CellTiter 96 Aqueous One Solution cell proliferation assay (MTS Reagents, Promega, Madison, WI, USA), according to the manufacturer instructions. Briefly, the cells were treated with the selected compounds in 0.1% dimethyl sulfoxide (DMSO; vehicle), 0.1% DMSO (control vehicle), or medium (control) and seeded at a cell density of 5,500 cells/well (MDA-MB-231 cells) or 4 x 10^4 cells/well (K562 cells), 7000 cells/well (HepG2 cells) or 1 x 10^5 cells/well (human PBMCs) in duplicates (MDA-MB-231, K562, and […]) or triplicates for HepG2 cells (100 µL), in sterile 96-well plates. For the MDA-MB-231 and HepG2, the cells were left to adhere overnight before adding the compounds. The plates were then incubated for 24 hours (48 hours for HepG2), after which 15 µL of MTS reagent was added to each well. After 30-90 minute of incubation, the absorbance was measured at 492 nm using a microplate reader (Synergy HTX Multi-Mode; BioTek Instruments, Inc., VT, USA). […]
(§6) Bead Array Human inflammatory cytokine Kit (content: IL-1, IL-6, IL-8, IL-10, IL-12p). The flow cytometric analyses were performed on an Attune NxT flow cytometer (Thermo Fisher Scientific, […]
(§7) Data are represented as means ± standard deviation (SD) from three representative independent experiments.
(§8) All experiments were performed at least twice, with average values expressed as means ± SD. All data were analyzed with the statistical software GraphPad Prism 8.0 (GraphPad Software, Inc., CA, USA). by one-way ANOVA followed with Dunnett’s multiple compar ison test. Differences were considered non-significant for p > 0.05, and significant (*) for p < 0.05. […]

[11] = system: MDA-MB-231 cancer cell line; test: MTS metabolic activity (cytotoxicity) assay, MDA-MB-231; assay type: cell-based, human; details: concentrations 1 to 100 μM, 24 hours
Experimental: as §3, §4, §5, §6, §7, §8

[12] = system: human peripheral blood mononuclear cells (PBMCs); test: MTS metabolic activity (cytotoxicity) assay, PBMCs; assay type: cell-based; details: concentrations up to 100 μM, 24 hours
Experimental: as §3, §4, §5, §6, §7, §8

[13] = system: IL-6 secretion from MDA-MB-231 cells; test: Multiplexed cytokine assay, IL-6 secretion; assay type: cell-based, human; details: 24 hours, vs untreated cells
Experimental: (§9) Figure 5 Effect of compounds 1 and 6a on the secretion of IL-6 and IL-8 expressed in pg/mL. The effects were measured after incubating the cells with the compounds at 10 and 100 μM. Compounds 1 and 6a reduce the secretion of IL-6 and IL-8 in a dose-dependent manner at 100 and 10 μM. Results shown are means ± SEM of three independent experiments. ns, not significant (p > 0.05); *p < 0.05 versus untreated controls.
(§10) Metabolic activity assay: […]
(§11) Briefly, the cells were treated with the selected compounds in 0.1% dimethyl sulfoxide (DMSO; vehicle), 0.1% DMSO (control vehicle), or medium (control) and seeded at a cell density of 5,500 cells/well (MDA-MB-231 cells) or 4 x 10^4 cells/well (K562 cells), 7000 cells/well (HepG2 cells) or 1 x 10^5 cells/well (human PBMCs) in duplicates (MDA-MB-231, K562, and […]) or triplicates for HepG2 cells (100 µL), in sterile 96-well plates. For the MDA-MB-231 and HepG2, the cells were left to adhere overnight before adding the compounds. The plates were then incubated for 24 hours (48 hours for HepG2), after which 15 µL of MTS reagent was added to each well. […]
(§12) HTX Multi-Mode; BioTek Instruments, Inc., VT, USA).
(§13) Multiplexed cytokine assay:
(§14) MDA-MB-231 cells were seeded in 96-well flat-bottom plates at a density of 2 x 10^4 cells/well in 100 µL of medium and allowed to adhere for 24 hours at 37 °C and 5% CO2. The medium was then replaced by a fresh medium containing the desired concentrations of compounds 1 and 6a, after which the cells were cells incubated again for 24 hours at 37 °C and 5% CO2. Cell-free supernatants were collected and stored at – 80 °C before the analysis. The cytokines secretion was assessed by BD Cytometric Bead Array Human inflammatory cytokine Kit (content: IL-1, IL-6, IL-8, IL-10, IL-12p). The flow cytometric analyses were performed on an Attune NxT flow cytometer (Thermo Fisher Scientific, Waltham, MA, USA). Standard curves were generated using recombinant cytokines provided in the kit, and the data were analyzed with FlowJo software (Tree Star, Inc., Ashland, OR). The results are expressed in pg/mL. Data are represented as means ± standard deviation (SD) from three representative independent experiments.
(§15) All experiments were performed at least twice, with average values expressed as means ± SD. All data were analyzed with the statistical software GraphPad Prism 8.0 (GraphPad Software, Inc., CA, USA). by one-way ANOVA followed with Dunnett’s multiple compar ison test. Differences were considered non-significant for p > 0.05, and significant (*) for p < 0.05.

[14] = system: IL-8 secretion from MDA-MB-231 cells; test: Multiplexed cytokine assay, IL-8 secretion; assay type: cell-based, human; details: 24 hours, vs untreated cells
Experimental: as §9, §10, §11, §12, §13, §14, §15

[15] = target: T9, galectin-2 (Homo sapiens, UniProt P05162); test: Competitive fluorescence polarization assay, galectin-2; assay type: binding; details: mean ± SEM of n = 4–8
T9 sequence (P05162 1-132): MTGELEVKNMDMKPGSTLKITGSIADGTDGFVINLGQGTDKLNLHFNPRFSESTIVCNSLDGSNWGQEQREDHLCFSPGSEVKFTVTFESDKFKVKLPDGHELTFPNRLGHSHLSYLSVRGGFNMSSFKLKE

T3 sequence (P17931 whole entry): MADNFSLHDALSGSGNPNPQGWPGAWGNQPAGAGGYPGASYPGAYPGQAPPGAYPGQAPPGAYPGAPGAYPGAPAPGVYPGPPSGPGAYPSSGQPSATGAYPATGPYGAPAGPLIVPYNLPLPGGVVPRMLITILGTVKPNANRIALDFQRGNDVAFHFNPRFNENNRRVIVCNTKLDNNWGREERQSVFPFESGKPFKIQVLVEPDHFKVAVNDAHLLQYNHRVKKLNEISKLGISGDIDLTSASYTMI
T8 sequence (O00182 227-355 limits assumed): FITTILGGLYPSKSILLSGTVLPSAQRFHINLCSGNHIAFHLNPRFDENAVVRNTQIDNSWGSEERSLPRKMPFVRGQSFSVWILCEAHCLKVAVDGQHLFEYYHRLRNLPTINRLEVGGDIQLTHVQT
T7 sequence (O00182 17-148 limits assumed): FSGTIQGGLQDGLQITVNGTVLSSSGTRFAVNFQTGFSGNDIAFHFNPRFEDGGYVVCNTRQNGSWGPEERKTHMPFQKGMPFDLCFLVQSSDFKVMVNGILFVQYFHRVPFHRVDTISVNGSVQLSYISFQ
T2 sequence (P09382 whole entry): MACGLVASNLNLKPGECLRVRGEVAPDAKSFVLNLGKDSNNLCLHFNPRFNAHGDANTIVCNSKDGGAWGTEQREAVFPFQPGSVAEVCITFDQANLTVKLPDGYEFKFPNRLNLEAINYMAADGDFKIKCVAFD

Row | Compound | Kd [2] | Kd [3] | Kd [4] | Kd [5] | Kd [6] | Kd [7] | Kd [8] | Kd [9] | further results
1 | OC[C@H]1Oc2cc(Cc3ccc(F)cc3)cc3c2[C@@H](OC3)[C@H]1O [compound 2] | – | – | – | – | – | – | – | – | selectivity for galectin-8N over galectin-1 [1]: about 2 fold; selectivity for galectin-8N over galectin-3 [1]: 23 fold
2 | methyl β-D-galactomalonyl phenyl ester | – | – | – | – | – | – | – | – | Kd [1]: 5.7 µM
3 | COC(=O)c1ccc2nc(CO[C@@H]3C=CO[C@H](CO)[C@@H]3O)[nH]c2c1 [5c] | > 1500 µM | 1200 ± 287 µM | 3200 µM | 2500 µM | 180 ± 19 µM | 3000 ± 300 µM | > 1500 µM | > 1500 µM | –
4 | CCOC(=O)c1ccc2c(c1)nc(CO[C@@H]1C=CO[C@H](CO)[C@@H]1O)n2C [5b] | 840 ± 20 µM | 680 ± 37 µM | – | – | 690 ± 53 µM | 1500 ± 180 µM | – | – | –
5 | Cn1c(CO[C@@H]2[C@@H](O)[C@@H](Sc3ccc(Cl)c(Cl)c3)O[C@H](CO)[C@@H]2O)nc2ccc(C(=O)O)cc21 [compound 1, reference compound] | – | – | – | – | – | – | – | – | affinity for galectin-8N relative to that of compound 6a [6]: about 25 fold; cell viability (MTS), K562 [10]: None of the compounds decreased the viability; cell viability (MTS), MDA-MB-231 [11]: None of the compounds decreased the viability; also recorded: no effect on the viability; direct cytotoxicity (MTS), PBMCs [12]: lack of direct cytotoxicity; reduction in IL-6 secretion ([13]; 10 μM, effect not significant): about 15%; reduction of IL-6 secretion ([13]; 100 μM): about 65%; reduction in IL-8 secretion ([14]; 10 μM, effect not significant): ~20%; reduction of IL-8 secretion ([14]; 100 μM): about 55%
6 | COC(=O)c1ccc2nc(CO[C@@H]3C=CO[C@H](CO)[C@@H]3O)n(C)c2c1 [5a] | 2200 ± 138 µM | 1300 ± 130 µM | 1700 ± 60 µM | 2600 ± 230 µM | 400 ± 34 µM | 3000 ± 380 µM | > 1500 µM | – | –
7 | OC[C@H]1OC=C[C@@H](O)[C@H]1O [compound 3, D-galactal] | 1600 ± 140 µM | 3300 ± 650 µM | 2400 ± 13 µM | 5300 µM | 1300 ± 72 µM | 4100 ± 470 µM | > 1500 µM | 4800 µM | higher affinity for galectin-8N compared to the methyl β-D-galactopyranoside [6]: 5 fold
8 | COC(=O)c1ccc2ccc(CO[C@@H]3C=CO[C@H](CO)[C@@H]3O)nc2c1 [compound 8] | > 1500 µM | 1700 ± 40 µM | 1300 ± 12 µM | 3700 ± 250 µM | 230 ± 16 µM | > 1500 µM | 1000 ± 51 µM | > 1500 µM | Kd [15]: > 1500 µM
9 | Cn1c(CO[C@@H]2C=CO[C@H](CO)[C@@H]2O)nc2cc(C(=O)O)ccc21 [6b] | 1100 ± 87 µM | 770 ± 129 µM | 3600 µM | 2500 ± 300 µM | 810 ± 54 µM | 3000 ± 30 µM | > 1500 µM | > 1500 µM | –
